We go through 7 compounds from patent US7001897B2, “1-methylcarbapenem derivatives” (Sankyo Company, Limited, priority 2000, dated 2006).

Converted amounts (≈) assume the structure as drawn. Some results are limits rather than exact numbers.

The subject of series [1] is S. pneumoniae 9605 (PRSP). In words: In vivo antibacterial activity, intraperitoneal infection of mice. As to conditions: Streptococcus pneumoniae, 168 h; male ddY mice, i.p. S. pneumoniae 9605 (PRSP), single subcutaneous treatment, Probit method from survival rates 7 days after infection. As to the method:
Male ddY mice of 4 weeks old (purchased from SLC Japan) were intraperitoneally inoculated with S. pneumoniae 9605 (PRSP) at a volume of 0.2 ml (containing 5% mucin, 1-5×10^3 colony forming unit (cfu)/mouse). Immediately after the mice were infected, they were subcutaneously treated with the test compound singly at a volume of 0.1 ml. Seven mice were used per group. A solution of the test compound prepared by 2-step dilution was used for the experiment. ED50 values of the compounds were calculated by the Probit method from survival rates 7 days after infection.

In a further series the test system is Streptococcus pneumoniae. The series is described as follows: In vitro antibacterial activity, agar plate dilution method. Format: cell-based. As to conditions: B: Streptococcus pneumoniae; agar plate dilution; read-out: Minimum Concentration to Inhibit Growth of the Employed Bacteria B. How it is done:
(§1) To assess the antibacterial activities of the compounds, the minimum concentrations (μg/ml) of the compounds to inhibit growth of various pathogenic bacteria were determined by agar plate dilution method. In this Table, the employed bacteria A, B, and C were as follow: • A: Staphylococcus aureus • B: Streptococcus pneumoniae • C: Haemophilis influenzae strain 9787 (a strain producing β-lactamase)

For series [2], the system named is Haemophilis influenzae strain 9787 (a strain producing β-lactamase). Described as above. Format: cell-based. As to conditions: C: Haemophilis influenzae strain 9787 (β-lactamase producing); agar plate dilution; read-out: Minimum Concentration to Inhibit Growth of the Employed Bacteria C. How it is done: as §1
A further series concerns Staphylococcus aureus. The series is described as above. Format: cell-based. The settings on record: A: Staphylococcus aureus; agar plate dilution; read-out: Minimum Concentration to Inhibit Growth of the Employed Bacteria A. As to the method:
as §1

Series [3] can be described thus: Pharmacokinetics, plasma concentration by bioassay after subcutaneous injection. Format: in vivo. As to conditions: mouse, sc, mice (ddY, male), 20 mg/kg subcutaneous; for AUC: read-out: AUCall (area under the concentration-time curve in plasma); for Cmax: read-out: Cmax (maximal plasma concentration); for half-life: read-out: T1/2 (half-life in plasma concentration) (converted). How it is done: The compounds of the present invention compound (20 mg/kg) was subcutaneously injected to mice (n=3, ddY, male, purchased from SLC Japan). The plasma concentration of the compound was determined by a bioassay method at 5, 15, and 30 min, and 1, 1.5, and 2 hr after administration. In the Table, Cmax, T1/2, and AUCall indicate the maximal plasma concentration, half-life in plasma concentration, and area under the concentration-time curve in plasma of the compound, respectively.

Turning to `C[C@@H](O)[C@H]1C(=O)N2C(C(=O)O)=C(SC3CN(c4nc(C(=O)NC5CNC5)cs4)C3)[C@H](C)[C@H]12` [Example 59, (1R,5S,6S)-2-{1-[4-(azetidin-3-ylcarbamoyl)-1,3-thiazol-2-yl]azetidin-3-yl}thio-6-[(R)-1-hydroxyethyl]-1-methylcarbapen-2-em-3-carboxylic acid], the ED50 (in general, the midpoint of the dose-response relation) in series [1] was found to be 1.08 mg/kg. In addition, the MIC in the series on Streptococcus pneumoniae was 0.2 µg/mL (≈ 0.417 µM); in series [2], 0.2 µg/mL (≈ 0.417 µM); with Staphylococcus aureus, not above 0.012 µg/mL.

In series [1], `C[C@@H](O)[C@H]1C(=O)N2C(C(=O)O)=C(SC3CN(c4nc(C(=O)NCCN)cs4)C3)[C@H](C)[C@H]12` [Example 61, (1R,5S,6S)-2-{1-[4-((2-aminoethyl)carbamoyl)-1,3-thiazol-2-yl]azetidin-3-yl}thio-6-[(R)-1-hydroxyethyl]-1-methylcarbapen-2-em-3-carboxylic acid] gave an ED50 of 1.79 mg/kg. Further, the MIC in the series on Streptococcus pneumoniae came out at 0.2 µg/mL (≈ 0.428 µM); in series [2], 0.39 µg/mL (≈ 0.834 µM); with Staphylococcus aureus, 0.025 µg/mL (≈ 0.0535 µM).

In series [1], `C[C@@H](O)[C@H]1C(=O)N2C(C(=O)O)=C(SC3CN(c4nc(CN)cs4)C3)[C@H](C)[C@H]12` [Example 67, (1R,5S,6S)-2-[1-(4-aminomethyl-1,3-thiazol-2-yl)azetidin-3-yl]thio-6-[(R)-1-hydroxyethyl]-1-methylcarbapen-2-em-3-carboxylic acid] yielded an ED50 of 1.6 mg/kg. Moreover, in series [3], the AUC is 34100 ng·h/mL, the Cmax is 40200 ng/mL and the half-life is 27 min. The MIC with Streptococcus pneumoniae is 0.39 µg/mL (≈ 0.95 µM). In addition, in series [2], the MIC came out at 0.2 µg/mL (≈ 0.487 µM). Besides, the MIC in the series with Staphylococcus aureus was not above 0.012 µg/mL.

The compound `C[C@@H](O)[C@H]1C(=O)N2C(C(=O)O)=C(SC3CN(c4nc(C(=O)N[C@H]5CCNC5)cs4)C3)[C@H](C)[C@H]12` [Example 57, (1R,5S,6S)-2-{1-[4-((3S)-pyrrolidin-3-ylcarbamoyl)-1,3-thiazol-2-yl]azetidin-3-yl}thio-6-[(R)-1-hydroxyethyl]-1-methylcarbapen-2-em-3-carboxylic acid] registered a 50% effective dose (ED50) in series [1] of 0.855 mg/kg. In series [3], the AUC is 45300 ng·h/mL, the Cmax stood at 48200 ng/mL and the half-life was 22.8 min. In the series on Streptococcus pneumoniae, the MIC turned out to be 0.2 µg/mL (≈ 0.405 µM). Moreover, the MIC in series [2] was found to be 0.2 µg/mL (≈ 0.405 µM). Besides, in the series with Staphylococcus aureus, the MIC worked out at 0.025 µg/mL (≈ 0.0506 µM).

In the case of `C[C@@H](O)[C@H]1C(=O)N2C(C(=O)O)=C(SC3CN(c4nc(C(=O)N5CCNCC5)cs4)C3)[C@H](C)[C@H]12` [Example 60, (1R,5S,6S)-2-{1-[4-(piperazine-1-carbonyl)-1,3-thiazol-2-yl]azetidin-3-yl}thio-6-[(R)-1-hydroxyethyl]-1-methylcarbapen-2-em-3-carboxylic acid], the median effective dose (ED50) in series [1] turned out to be 1.41 mg/kg. Also, in series [3], the AUC came out at 27900 ng·h/mL, the Cmax was determined as 46100 ng/mL and the half-life is 18 min. The MIC in the series on Streptococcus pneumoniae turned out to be 0.39 µg/mL (≈ 0.79 µM). Besides, the MIC in series [2] is 0.39 µg/mL (≈ 0.79 µM). For the same compound, the MIC in the series with Staphylococcus aureus worked out at 0.025 µg/mL (≈ 0.0506 µM).

The compound `C[C@@H](O)[C@H]1C(=O)N2C(C(=O)[O-])=C(SC3CN(c4nc(C(=O)N5CCOCC5)co4)C3)[C@H](C)[C@H]12.[Na+]` [Example 76, (1R,5S,6S)-2-[1-(4-morpholinocarbonyl-1,3-oxazol-2-yl)azetidin-3-yl]thio-6-[(R)-1-hydroxyethyl]-1-methylcarbapen-2-em-3-carboxylic acid sodium salt] had an ED50 in series [1] of 0.534 mg/kg. In addition, in series [3], the AUC is 27900 ng·h/mL, the Cmax was found to be 52800 ng/mL and the half-life was 11.4 min. The MIC in the series with Streptococcus pneumoniae came to 0.2 µg/mL. For the same compound, in series [2], the MIC amounted to 0.39 µg/mL. Also, the MIC in the series with Staphylococcus aureus came out at 0.05 µg/mL.

In series [1], `C[C@@H](O)[C@H]1C(=O)N2C(C(=O)O)=C(SC3CN(c4nc(C(=O)N[C@@H]5CCNC5)cs4)C3)[C@H](C)[C@H]12` [Example 58, (1R,5S,6S)-2-{1-[4-((3R)-pyrrolidin-3-ylcarbamoyl)-1,3-thiazol-2-yl]azetidin-3-yl}thio-6-[(R)-1-hydroxyethyl]-1-methylcarbapen-2-em-3-carboxylic acid] registered a 50% effective dose (ED50) of 0.899 mg/kg. In series [3], the AUC turned out to be 47400 ng·h/mL, the Cmax is 63900 ng/mL and the half-life is 24.6 min. Besides, the MIC in the series on Streptococcus pneumoniae worked out at 0.2 µg/mL (≈ 0.405 µM). In series [2], the MIC was determined as 0.2 µg/mL (≈ 0.405 µM). Further, the MIC in the series on Staphylococcus aureus was not above 0.012 µg/mL.
